Measured values as given in US20260297092A1, “PYRAZOLOPYRIMIDINE DERIVATIVES AS INHIBITORS OF NLRP3” (Takeda Pharmaceutical Company Limited, priority 2023, published 2026).

Columns and labels:
[1] = test system: NLRP3 inflammasome (IL-1β production in THP-1 cells); experiment: IL-1β TR-FRET Assay (percentage of inhibition at 300 nM, 6 μM or 10 μM); assay type: cell-based, human; conditions: Homo sapiens, LPS priming, ATP activation; for inhibition at 0.3 µM: THP-1, 300 nM, read-out: IL-1β inhibitory rate at 300 nM (%); for inhibition at 6 µM: THP-1, 6 μM, read-out: IL-1β inhibitory rate at 6 μM (%)
Procedure, shortened: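 Percent inhibition of IL-1β used DMSO wells as 0% and 3 μM MCC-950 wells as full inhibition, with supernatant read by HTRF. Beforehand, IFN-γ-differentiated (25 ng/mL, 24 h), LPS-primed (50 ng/mL, 24 h) THP-1 cells received compound 30 min before inflammasome activation by 20 mM ATP for 2 h.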

[2] = test system: TNF-α (NF-κB pathway, THP-1 cells); experiment: TNF-α Assay (IC50); assay type: cell-based, human; conditions: Homo sapiens, 600 ng/mL LPS, 3 hours
Procedure, shortened: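 Supernatant TNF-α quantified by ELISA after 3 h stimulation with 600 ng/mL LPS at 37 °C, following 30 min compound preincubation. Cells: IFN-differentiated (25 ng/mL, 24 h) THP-1 macrophages, 40,000/well, serum-free. IC50 by sigmoidal fit of % inhibition, with TPCA-1 as 100% control.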

| SMILES | inhibition at 0.3 µM [1] [%] | IC50 [2] [µM] | inhibition at 6 µM [1] [%] | inhibition at 10 µM ([1]; THP-1, 10 μM, read-out: IL-1β inhibitory rate at 10 μM (%)) [%] |
| --- | --- | --- | --- | --- |
| Cc1cc(C)c(-n2cc3c(=O)[nH]c(-c4cnccn4)nc3n2)c(O)c1 [Example 61, 2-(2-hydroxy-4,6-dimethylphenyl)-6-(pyrazin-2-yl)-2,5-dihydro-4H-pyrazolo[3,4-d]pyrimidin-4-one] | 100 | > 30 | – | – |
| Cc1cc(C)c(-n2cc3c(=O)[nH]c(Cn4cccn4)nc3n2)c(O)c1 [Example 75, 2-(2-hydroxy-4,6-dimethylphenyl)-6-[(1H-pyrazol-1-yl)methyl]-2,5-dihydro-4H-pyrazolo[3,4-d]pyrimidin-4-one] | 98 | > 30 | – | – |
| CCOc1nc2nn(-c3c(C)cc(OC(F)F)cc3F)cc2c(=O)[nH]1 [Example 109] | 99 | > 30 | – | – |
| Cc1cc(C)c(-n2cc3c(=O)[nH]c(OCC(F)F)nc3n2)c(O)c1 [Example 32, 6-(2,2-difluoroethoxy)-2-(2-hydroxy-4,6-dimethylphenyl)-2,5-dihydro-4H-pyrazolo[3,4-d]pyrimidin-4-one] | 105 | > 30 | – | – |
| Cc1ccc(-n2cc3c(=O)[nH]c(-c4ccncn4)nc3n2)c(C)c1 [Example 84, 2-(2,4-dimethylphenyl)-6-(pyrimidin-4-yl)-2,5-dihydro-4H-pyrazolo[3,4-d]pyrimidin-4-one] | 97 | > 30 | – | – |
| Cc1cc(C)c(-n2cc3c(=O)[nH]c(OC(C)C)nc3n2)c(O)c1 [Example 7, 2-(2-hydroxy-4,6-dimethylphenyl)-6-[(propan-2-yl)oxy]-2,5-dihydro-4H-pyrazolo[3,4-d]pyrimidin-4-one] | 99 | > 30 | – | – |
| CCOc1nc2nn(-c3c(F)cc(OC)cc3Br)cc2c(=O)[nH]1 [Example 157, 2-(2-bromo-6-fluoro-4-methoxyphenyl)-6-ethoxy-2,5-dihydro-4H-pyrazolo[3,4-d]pyrimidin-4-one] | 102 | > 30 | – | – |
| Cc1nccc(-c2nc3nn(-c4c(C)cc(C5CC5)cc4C)cc3c(=O)[nH]2)n1 [Example 287, 2-(4-cyclopropyl-2,6-dimethylphenyl)-6-(2-methylpyrimidin-4-yl)-2,5-dihydro-4H-pyrazolo[3,4-d]pyrimidin-4-one] | – | > 30 | 99 | – |
| Cc1ccc(-n2cc3c(=O)[nH]c(Oc4ccccc4)nc3n2)c(C)c1 [Example 100, 2-(2,4-dimethylphenyl)-6-phenoxy-2,5-dihydro-4H-pyrazolo[3,4-d]pyrimidin-4-one] | – | > 30 | – | 100 |
| Cc1cc(C2CC2)cc(C(F)F)c1-n1cc2c(=O)[nH]c(C3COCCO3)nc2n1 (racemic) [Example 316, 2-[4-cyclopropyl-2-(difluoromethyl)-6-methylphenyl]-6-(1,4-dioxan-2-yl)-2,5-dihydro-4H-pyrazolo[3,4-d]pyrimidin-4-one] | – | > 30 | 104 | – |
| COCCOc1nc2nn(-c3c(C)cc(C4CC4)cc3CC(F)(F)F)cc2c(=O)[nH]1 [Example 231, 2-[4-cyclopropyl-2-methyl-6-(2,2,2-trifluoroethyl)phenyl]-6-(2-methoxyethoxy)-2,5-dihydro-4H-pyrazolo[3,4-d]pyrimidin-4-one] | – | > 30 | 90 | – |
| CCOc1nc2nn(-c3c(C)cc(C)cc3C#N)cc2c(=O)[nH]1 [Example 152, 2-(6-ethoxy-4-oxo-4,5-dihydro-2H-pyrazolo[3,4-d]pyrimidin-2-yl)-3,5-dimethylbenzonitrile] | 92 | > 30 | – | – |
| CCOc1nc2nn(-c3c(C)cc(C4CC4)cc3F)cc2c(=O)[nH]1 [Example 39, 2-(4-cyclopropyl-2-fluoro-6-methylphenyl)-6-ethoxy-2,5-dihydro-4H-pyrazolo[3,4-d]pyrimidin-4-one] | 100 | > 30 | – | – |
| Cc1cc(C)c(-n2cc3c(=O)[nH]c(C)nc3n2)c(O)c1 [Example 74, 2-(2-hydroxy-4,6-dimethylphenyl)-6-methyl-2,5-dihydro-4H-pyrazolo[3,4-d]pyrimidin-4-one] | 99 | > 30 | – | – |
| CCc1nc2nn(-c3c(F)cc(C4CC4)cc3C(F)F)cc2c(=O)[nH]1 [Example 295, 2-[4-cyclopropyl-2-(difluoromethyl)-6-fluorophenyl]-6-ethyl-2,5-dihydro-4H-pyrazolo[3,4-d]pyrimidin-4-one] | – | > 30 | 105 | – |
